US20090029975A1, “1,3-BENZOTHIAZINONE DERIVATIVE AND USE THEREOF” (TAKEDA PHARMACEUTICAL COMPANY LIMITED, priority 2005, published 2009)

What was measured:
human PPARα = biological target: T1, human PPARα (Homo sapiens, UniProt Q07869); assay: PPARα assay: PPRE-dependent transcriptional activation activity (luciferase reporter in COS-1 cells transfected with PPARα and RXRα); assay type: cell-based; conditions: COS-1 cells transfected with PPARα and RXRα expression vectors and pGL3-PPRE4-Tk; about 42 hours incubation with compound; compound-free group = 100%
T1 construct: expressed in transfected cells; host or cells: COS-1 cells
T1 sequence (Q07869 1-468): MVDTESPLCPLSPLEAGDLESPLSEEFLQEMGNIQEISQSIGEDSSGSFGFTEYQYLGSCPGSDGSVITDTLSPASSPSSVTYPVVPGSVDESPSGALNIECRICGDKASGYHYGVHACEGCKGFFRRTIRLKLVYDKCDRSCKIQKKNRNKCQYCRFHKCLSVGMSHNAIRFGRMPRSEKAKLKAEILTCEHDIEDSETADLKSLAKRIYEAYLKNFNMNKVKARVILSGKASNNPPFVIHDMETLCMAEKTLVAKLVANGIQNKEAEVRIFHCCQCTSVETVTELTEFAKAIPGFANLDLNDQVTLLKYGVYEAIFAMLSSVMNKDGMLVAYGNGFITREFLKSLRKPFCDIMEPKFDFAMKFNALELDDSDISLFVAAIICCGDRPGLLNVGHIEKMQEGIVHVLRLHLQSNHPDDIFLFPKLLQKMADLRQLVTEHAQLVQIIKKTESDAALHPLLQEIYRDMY
T1 sequence (P19793 1-462 partner): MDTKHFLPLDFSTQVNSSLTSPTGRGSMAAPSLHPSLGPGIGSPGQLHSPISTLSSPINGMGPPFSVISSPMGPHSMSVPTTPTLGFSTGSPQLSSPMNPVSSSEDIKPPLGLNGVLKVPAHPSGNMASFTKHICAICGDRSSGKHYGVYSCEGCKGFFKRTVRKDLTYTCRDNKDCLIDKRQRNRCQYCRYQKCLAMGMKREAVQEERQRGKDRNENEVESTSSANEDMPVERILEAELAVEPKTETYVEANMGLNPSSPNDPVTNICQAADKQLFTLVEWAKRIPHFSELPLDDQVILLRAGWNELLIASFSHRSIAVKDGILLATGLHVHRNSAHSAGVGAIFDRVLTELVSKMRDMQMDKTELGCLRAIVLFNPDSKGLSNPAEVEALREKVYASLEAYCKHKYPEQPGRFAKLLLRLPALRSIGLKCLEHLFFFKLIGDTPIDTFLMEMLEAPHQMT
Description: COS-1 cells were suspended in Dulbecco's Modified Eagle Medium (10% FBS, D-MEM) supplemented with 10% heat-inactivated fetal calf serum to 1×10^5 cells/ml and a 25 ml aliquot was seeded on a 75 cm^2 cell culture flask, followed by incubation in 5% CO2 at 37° C. for about 15 hours. PPARα expression vector pMCMV-neo-rPPARα and RXRα expression vector pMCMV-neo-rRXRα, in which human PPARα gene and human RXRα gene were inserted into pMCMV-neo (manufactured by Promega Corp.) respectively, and Luciferase reporter vector pGL3-PPRE4-Tk, in which four PPREs (aggacaaaggtca; SEQ ID NO: 2) were inserted into pGL3-Promoter Vector (manufactured by Promega Corp.) in tandem, were transfected to the cells using FuGENE6 (Transfection reagent: manufactured by Roche), and then incubation for about 24 hours. After completion of the incubation, the cells were recovered and suspended in 0.1% bovine serum albumin (Sigma)-containing D-MEM to 5×10^4 cells/ml. A 100 μl aliquot was seeded on each well of a 96-well plate, followed by incubation in 5% CO2 at 37° C. for about 4 hours. Next, D-MEM containing a test compound (compound obtained in EXAMPLE 2, 8, 10 or 12) was added thereto, followed by incubation in 5% CO2 at 37° C. for about 42 hours. After completion of the incubation, a 801 aliquot was added to each well of Steady-Glo Reagent (manufactured by Promega Corp.). After allowing to stand for 30 minutes at room temperature, fluorescence levels by luciferase were determined using a WALLAC ARVO SX (manufactured by Perkin-Elmer). Taking the emitted luminescence of test compound-free group as 100%, the PPRE-dependent transcriptional activation was shown in terms of the concentration of test compound, which caused to emit the luminescence of 200% (EC200: μM).

[1] = system: ARE of rat glutathione S-transferase Ya subunit gene; assay: Assay for ARE-dependent transcriptional activation activity (luciferase reporter pGL3-ARE in rat H9c2 cells); assay type: cell-based; conditions: rat H9c2 cells transfected with pGL3-ARE; about 24 hours incubation with compound; compound-free group = 100%
Description: Rat H9c2 cells were suspended in Dulbecco's Modified Eagle Medium (10% FBS, D-MEM) supplemented with 5% heat-inactivated fetal calf serum to 7×10^4 cells/ml and a 18 ml aliquot was seeded on a Petri dish for cell culture, followed by incubation in 5% CO2 at 37° C. for about 16 hours. ARE ([…]; SEQ ID NO: 1) of rat glutathione S-transferase Ya subunit gene was incorporated into pGL3-Promoter Vector (manufactured by Promega Corp.) and the resulting luciferase reporter vector pGL3-ARE was transfected to the cells using FuGENE6 (Transfection reagent: manufactured by Roche), followed by additional incubation for about 7 hours. After completion of the incubation, the cells were recovered and suspended in 10% FBS-containing D-MEM to 1×10^5 cells/ml. A 100 μl aliquot was seeded on each well of a 96-well plate, followed by incubation in 5% CO2 at 37° C. for about 17 hours. Next, the cells were washed with D-MEM to remove serum, and D-MEM containing a test compound (compound obtained in EXAMPLE 2, 8, 10, 12, 22 or 23) was added to the cells, followed by incubation in 5% CO2 at 37° C. for about 24 hours. After completion of the incubation, 801 each of Steady-Glo Reagent (manufactured by Promega Corp.) was added to each well. After allowing to stand at room temperature for 40 minutes, fluorescence levels by luciferase were determined using a WALLAC ARVO SX (manufactured by Perkin-Elmer). Taking the emitted luminescence of test compound-free group as 100%, the ARE-dependent transcriptional activation was shown in terms of the concentration of test compound, which caused to emit the luminescence of 200% (EC200: μM).

| EC200 (concentration of test compound causing luminescence of 200% of the test compound-free group), PPRE-dependent transcriptional activation (human PPARα) [µM] | melting point [°C] | Structure (SMILES) | EC200 (concentration of test compound causing luminescence of 200% of the test compound-free group), ARE-dependent transcriptional activation [1] [µM] |
| --- | --- | --- | --- |
| >100 |  | CS(=O)(=O)c1cc(CCC(=O)O)nc(-c2nc(=O)c3ccccc3s2)c1 [EXAMPLE 2, 3-[6-(4-Oxo-4H-1,3-benzothiazin-2-yl)-4-(methylsulfonyl)pyridin-2-yl]propanoic acid] | 1.3 |
| >100 | 228.8 to 228.9 | CS(=O)(=O)c1cc(CCC(=O)O)nc(-c2nc(=O)c3ccc(Cl)cc3s2)c1 [EXAMPLE 8, 3-[6-(7-Chloro-4-oxo-4H-1,3-benzothiazin-2-yl)-4-(methylsulfonyl)pyridin-2-yl]propanoic acid] | 0.94 |
| >100 | 235.8 to 236.2 | CS(=O)(=O)c1cc(CCC(=O)O)nc(-c2nc(=O)c3ccc(F)cc3s2)c1 [EXAMPLE 10, 3-[6-(7-fluoro-4-oxo-4H-1,3-benzothiazin-2-yl)-4-(methylsulfonyl)pyridin-2-yl]propanoic acid] | 1.7 |
| >100 | 238.9 to 239.1 | Cc1ccc2c(=O)nc(-c3cc(S(C)(=O)=O)cc(CCC(=O)O)n3)sc2c1 [EXAMPLE 12, 3-[6-(7-Methyl-4-oxo-4H-1,3-benzothiazin-2-yl)-4-(methylsulfonyl)pyridin-2-yl]propanoic acid] | 1.6 |
|  | 240 to 240.2 | CCOC(=O)CCc1cc(S(C)(=O)=O)cc(-c2nc(=O)c3ccc(Cl)cc3s2)n1 [EXAMPLE 13, Ethyl 3-[6-(7-chloro-4-oxo-4H-1,3-benzothiazin-2-yl)-4-(methylsulfonyl)pyridin-2-yl]propanoate] |  |
|  | 203.4 to 203.6 | COC(=O)CCc1cc(S(C)(=O)=O)cc(-c2nc(=O)c3ccc(Cl)cc3s2)n1 [EXAMPLE 17, Methyl 3-[6-(7-chloro-4-oxo-4H-1,3-benzothiazin-2-yl)-4-(methylsulfonyl)pyridin-2-yl]propanoate] |  |
|  | 150.5 to 151.5 | CCN(CC)CCOC(=O)CCc1cc(S(C)(=O)=O)cc(-c2nc(=O)c3ccc(Cl)cc3s2)n1 [EXAMPLE 22, 2-(Diethylamino)ethyl 3-[6-(7-chloro-4-oxo-4H-1,3-benzothiazin-2-yl)-4-(methylsulfonyl)pyridin-2-yl]propanoate] | 0.61 |
|  |  | CCN(CC)C(=O)COC(=O)CCc1cc(S(C)(=O)=O)cc(-c2nc(=O)c3ccc(Cl)cc3s2)n1 [EXAMPLE 23, 2-(Diethylamino)-2-oxoethyl 3-[6-(7-chloro-4-oxo-4H-1,3-benzothiazin-2-yl)-4-(methylsulfonyl)pyridin-2-yl]propanoate] | 0.6 |
|  | 184.3 to 184.5 | CC(C)(C)OC(=O)CCc1cc(S(C)(=O)=O)cc(-c2nc(=O)c3ccc(Cl)cc3s2)n1 [compound 7, Tert-butyl 3-[6-(7-chloro-4-oxo-4H-1,3-benzothiazin-2-yl)-4-(methylsulfonyl)pyridin-2-yl]propanoate] |  |
|  | 177.6 to 178 | CC(C)(C)OC(=O)CCc1cc(S(C)(=O)=O)cc(-c2nc(=O)c3ccc(F)cc3s2)n1 [compound 9, Tert-butyl 3-[6-(7-fluoro-4-oxo-4H-1,3-benzothiazin-2-yl)-4-(methylsulfonyl)pyridin-2-yl]propanoate] |  |
|  | 178 to 178.4 | Cc1ccc2c(=O)nc(-c3cc(S(C)(=O)=O)cc(CCC(=O)OC(C)(C)C)n3)sc2c1 [compound 11, Tert-butyl 3-[6-(7-methyl-4-oxo-4H-1,3-benzothiazin-2-yl)-4-(methylsulfonyl)pyridin-2-yl]propanoate] |  |
|  | 235.4 to 235.5 | CCCOC(=O)CCc1cc(S(C)(=O)=O)cc(-c2nc(=O)c3ccc(Cl)cc3s2)n1 [compound 19, Propyl 3-[6-(7-chloro-4-oxo-4H-1,3-benzothiazin-2-yl)-4-(methylsulfonyl)pyridin-2-yl]propanoate] |  |
|  | 183.1 to 183.2 | Cc1oc(=O)oc1COC(=O)CCc1cc(S(C)(=O)=O)cc(-c2nc(=O)c3ccc(Cl)cc3s2)n1 [compound 20, (5-Methyl-2-oxo-1,3-dioxolen-4-yl)methyl 3-[6-(7-chloro-4-oxo-4H-1,3-benzothiazin-2-yl)-4-(methylsulfonyl)pyridin-2-yl]propanoate] |  |
|  | 240 to 241 | CS(=O)(=O)c1cc(CCC(=O)OCC(O)CO)nc(-c2nc(=O)c3ccc(Cl)cc3s2)c1 (stereo not shown) [compound 21, 2,3-Dihydroxypropyl 3-[6-(7-chloro-4-oxo-4H-1,3-benzothiazin-2-yl)-4-(methylsulfonyl)pyridin-2-yl]propanoate] |  |
